{"source": "patent US4481194A", "about": "“Des-proline-des-glycine vasopressin antagonists” (SmithKline Beckman Corporation, priority 1984, dated 1984)", "key": {"[1]": {"target": "T1, vasopressin stimulated adenylate cyclase (Sus scrofa, UniProt P32307)", "T1 construct": "in the medullary tissue of hog or human kidneys; from tissue; host or cells: kidney medullary membranes (hog or human)", "T1 sequence (P32307 whole entry)": "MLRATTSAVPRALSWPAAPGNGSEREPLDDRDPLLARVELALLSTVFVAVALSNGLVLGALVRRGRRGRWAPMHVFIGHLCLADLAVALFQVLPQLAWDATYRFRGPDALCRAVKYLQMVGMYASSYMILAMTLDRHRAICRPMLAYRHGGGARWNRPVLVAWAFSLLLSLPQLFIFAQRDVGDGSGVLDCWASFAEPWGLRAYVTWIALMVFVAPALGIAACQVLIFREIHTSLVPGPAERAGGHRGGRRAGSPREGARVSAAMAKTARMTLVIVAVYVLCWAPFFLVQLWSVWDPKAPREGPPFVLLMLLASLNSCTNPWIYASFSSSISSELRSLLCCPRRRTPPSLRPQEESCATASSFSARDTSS", "experiment": "Vasopressin stimulated adenylate cyclase activity in kidney medullary membrane", "format": "biochemical", "conditions": "In Vitro (Pig); antagonism of vasopressin stimulated adenylate cyclase, medullary tissue", "quoted_text": "In the test procedure for assay of adenylate cyclase activity, the amount of ^32 P/cAMP formed in the absence of medullary membrane is determined (blank). The blank value is subtracted from all experimental data. The compound is tested for its effect on basal adenylate cyclase activity and/or on vasopressin stimulated activity. Each determination is carried out in triplicate. The Ka value is derived from a Lineweaver-Burkeplot. Rel. Vmax =(Vmax drug/Vmax vasopressin)×100. Ki =I/[Ka'/Ka)-1] where I is the concentration of the antagonist, and Ka' and Ka are the concentrations of vasopressin required to give half maximal activity of adenylate cyclase in the presence and absence of antagonist, respectively."}, "[2]": {"target": "T2, vasopressin receptors [V2 -receptors] (Sus scrofa, UniProt P32307)", "T2 construct": "average KD value determined on 3 preparations of hog kidney membranes; from tissue; host or cells: hog kidney medullary membranes", "T2 sequence (P32307 whole entry)": "as above", "experiment": "3H-vasopressin binding assay, hog kidney membranes", "conditions": "In Vitro (Pig); competitive inhibition of 3H-vasopressin binding; read-out: BB", "quoted_text": "In the test procedure for binding assays, the amount of ^3 H-vasopressin bound in the absence and in the presence of an excess of vasopressin (7.5×10^-6 M) is measured in triplicate. These values represent total and non-specific binding, respectively."}, "hydropenic rat": {"system": "hydropenic rat", "experiment": "Hydropenic rat screen (anti-ADH activity in vivo)", "conditions": "estimated dose of peptide delivered ip which reduces Uosm from hydropenic levels to 300 mOsmoles/kg H2O", "description": "Antagonistic activity toward the natural antidiuretic hormone (anti-ADH activity) is determined, in vitro, in the medullary tissue of hog or human kidneys and, in vivo, in the hydropenic rat. The in vitro assay procedures for vasopressin stimulated adenylate cyclase activation or vasopression binding activity are described by F. Stassen et al., J. Pharmacology and Experimental Therapeutics, 223, 50-54 (1982).\nThe assay for anti-ADH activity is the hydropenic rat protocol is described below:\nFood and water are removed from male rats approximately 18 hours prior to testing. Animals are housed 4 per metabolism cage. At 0 hour, the test compound is administered intraperitoneally to the test group and an equivalent volume of vehicle is administered to both control groups (fasted and non-fasted). Urine volume and osmolality are measured every hour for 4 hours. Test values are recorded as ml of urine excreted (cumulative), mEq/rat electrolyte excreted, mg/rat urea excreted, and osmolality in milli-Osmoles/kg H2 O. A tolerance test is used to determine significance. ED300 is defined as the dose of compound (μg/kg) required to lower urine osmolality to 300 m-Osmoles/kg."}}, "note": "Numbered stars: 1 amine (or outer) side, 2 acyl side, 3 side chain; on linkers, the order of the positions; unused ones are H or OH. Bridge positions count the residues as written; N and C are the ends. Square brackets hold non-standard residues; d marks the D form. Peptide text beside a SMILES is read from it. X1 = O=C(CC1(S[*:2])CCCCC1)[*:1]; Abu = CC[C@H](N)C(=O)O"}
{"smiles": "CCOc1ccc(C[C@H]2NC(=O)CC3(CCCCC3)SSC[C@@H](C(=O)N[C@@H](CCCNC(=N)N)C(N)=O)NC(=O)[C@H](CC(N)=O)NC(=O)[C@H](C(C)C)NC(=O)[C@H](Cc3ccccc3)NC2=O)cc1", "note": "[A] ([dY](Et)FVNCR-NH2; linker N-5 via X1)", "values": [{"measurement": "Ki", "setting": "[1]", "result": 2.5, "unit": "nM"}, {"measurement": "Ki", "setting": "[2]", "result": 9000, "unit": "nM"}]}
{"smiles": "CCOc1ccc(C[C@H]2NC(=O)CC3(CCCCC3)SSC[C@@H](C(=O)N[C@@H](CCCNC(=N)N)C(N)=O)NC(=O)[C@H](CC(N)=O)NC(=O)[C@H](CC)NC(=O)[C@H](Cc3ccccc3)NC2=O)cc1", "note": "[B, 1(mercapto-β,cyclopentamethylenepropionic acid)2-(O--ethylD-tyrosine)-4-aminobutyric acid7-desproline-8-arginine-9-desglycinevasopressin] ([dY](Et)F[Abu]NCR-NH2; linker N-5 via X1)", "values": [{"measurement": "Ki", "setting": "[1]", "result": 6.2, "unit": "nM"}, {"measurement": "ED300", "setting": "hydropenic rat", "result": 0.1218, "unit": "mg/kg"}]}
{"smiles": "CCOc1ccc(C[C@H]2NC(=O)CC3(CCCCC3)SSC[C@@H](C(=O)N3CCC[C@H]3C(=O)N[C@@H](CCCNC(=N)N)C(=O)NCC(N)=O)NC(=O)[C@H](CC(N)=O)NC(=O)[C@H](C(C)C)NC(=O)[C@H](Cc3ccccc3)NC2=O)cc1", "note": "[C, [mercapto-β,cyclopentamethylenepropionic acid)2-(O--ethylD-tyrosine)-4-valine-8-argininevasopressin, reference compound] ([dY](Et)FVNCPRG-NH2; linker N-5 via X1 (inferred); C-terminus assumed)", "values": [{"measurement": "Ki", "setting": "[1]", "result": 9.8, "unit": "nM"}, {"measurement": "ED300", "setting": "hydropenic rat", "result": 0.011, "unit": "mg/kg"}]}
